Measurements taken from patent publication US10449162B2, “Delivery of drug nanoparticles and methods of use thereof” (DFB Soria, LLC, priority 2015, dated 2019).
Read-outs that look alike come from different tables or passages of the source.

What was measured:
[1] = Particle size of paclitaxel nanoparticles lots (ACCUSIZER 780); format: physicochemical; conditions: number-weighted differential distribution; nanoparticle API lot
Method: Max. Concentration: 9000 particles/mL, No. containers: 1, Sensor Range: Summation, Lower Detection Limit: 0.5 μm, Flow Rate: 30 mL/min, No. Analysis pulls: 4, Time between pulls: 1 sec, Pull volume: 10 mL, Tare Volume: 1 mL, Prime volume: 1 mL, Include First Pull: Not Selected.
Vortexed for 5-10 minutes and sonicated in a water batch for 1 minute.
Filled a plastic bottle with filtered (0.22 μm) 0.1% w/w SDS solution and analyzed the Background.

[2] = Specific surface area (BET isotherm); format: physicochemical; conditions: lots used in the formulas
Method: (§1) As used herein, the “specific surface area (SSA)” is the total surface area of the taxane nanoparticle per unit of taxane mass as measured by the Brunauer-Emmett-Teller (“BET”) isotherm by the following method: a known mass between 200 and 300 mg of the analyte is added to a 30 mL sample tube. […] The automated test is then carried out using the BETWIN® software package and the surface area of each sample is subsequently calculated. The bulk density measurement can be conducted by pouring the taxane nanoparticles into a graduated cylinder without tapping at room temperature, measuring the mass and volume, and calculating the bulk density.

[3] = Bulk density (not tapped); format: physicochemical; conditions: lots used in the formulas
Method: as §1

[4] = Observation of paclitaxel nanoparticle crystals in various substances and solutions (light microscopy); format: physicochemical
[5] = Solubility of paclitaxel in various solvents (HPLC); format: physicochemical
Method: For each solvent, about 2 g of the solvent was weighed into a clear glass vial.
Each vial was mixed with a stir bar on a magnetic stirrer for 2 hours at room temperature.
Each vial was then checked every 1-2 hours to see if the solution became clear.

skin inflammation models = conditions: topical treatment; nonclinical evaluations; cited from earlier work
[6] = methanol/water 15/85 (v/v), 37° C., pH 7, USP Apparatus II 75 rpm, PCT/US16/35993, cited from earlier work
[7] = in Aluminum sulfate 0.1-0.2% in water, 7 days, RT
[8] = in Ammonium lauryl sulfate 2% in water, 3 days, RT
[9] = in Benzalkonium chloride (50%) 2% in water, 7 days & 21 days, RT
[10] = in CARBOPOL ULTREZ 10 (with Ammonium hydroxide as neutralizer) 0.5% in water, 8 days & 21 days, RT
[11] = in Castor Oil 100%, 24 hrs & 9 days, RT
[12] = in Dimethicone, 1000 cSt 100%, 24 hrs & 6 days, RT
[13] = in FOMBLIN HC04 100%, 4, 7 & 13 days, RT
[14] = in Hydroxyethyl cellulose 1% in water, 7 days, RT
[15] = in Hydroxypropyl methylcellulose 1% in water, 3 days, RT
[16] = in Lecithin 1% in water, 24 hrs, RT
[17] = in Light Mineral Oil NF 100%, 3 days, RT & 40 C.
[18] = in Magnesium nitrate 5% in water, 3 days, RT
[19] = in Mannitol 5% in water, 7 days, RT
[20] = in Mineral Oil USP (heavy) 100%, 3 days, RT & 40 C
[21] = in PEG 400 10% in water, 22 days, RT & 60 C.
[22] = in Poloxamer 188 2% in water, 7 days, RT
[23] = in Poloxamer 407 2% in water, 5 & 7 days, RT
[24] = in Polyoxyl 40 Hydrogenated Castor Oil (KOLLIPHOR RH40) 1% in water, 6 days, RT
[25] = in Polysorbate 80 0.5% in Saline, 7 days, RT & 60 C.
[26] = in Polysorbate 80 0.5% in water, 22 days, RT & 60 C.
[27] = in Povidone 1% in water, 7 days & 21 days, RT
[28] = in Proline 3% in water, 7 days, RT
[29] = in Purified Water 100%, 5 days, RT & 60 C.
[30] = in ST-Cyclomethicone 5 NF 100%, 24 hrs & 13 days, RT
[31] = in Saline 0.9% NaCl in water, 7 days, RT & 60 C.
[32] = in Sodium lauryl sulfate 2% in water, 7 days, RT
[33] = in Sodium phosphate monobasic 0.75% in water, 7 days, RT
[34] = in Sorbitol 5% in water, 7 days, RT
[35] = in Vitamin E TPGS 0.5% in water, 6 days, RT
[36] = in Zinc acetate […] in water, 7 days, RT

Structure (SMILES): CC(=O)O[C@H]1C(=O)[C@@]2(C)[C@H]([C@H](OC(=O)c3ccccc3)[C@]3(O)C[C@H](OC(=O)[C@H](O)[C@@H](NC(=O)c4ccccc4)c4ccccc4)C(C)=C1C3(C)C)[C@]1(OC(C)=O)CO[C@@H]1C[C@@H]2O [Paclitaxel nanoparticles lot used in formulas listed in Tabl] [listing 1 of 2 here]
- Particle size, Mean [1]: 0.861 μm
- Particle size, Median [1]: 0.710 μm
- Particle size, Mode [1]: 0.572 μm
- Specific surface area (SSA) [2]: 41.24 m^2/g
- Bulk density (not-tapped) [3]: 0.05 g/mL

Structure (SMILES): CC(=O)O[C@H]1C(=O)[C@@]2(C)[C@H]([C@H](OC(=O)c3ccccc3)[C@]3(O)C[C@H](OC(=O)[C@H](O)[C@@H](NC(=O)c4ccccc4)c4ccccc4)C(C)=C1C3(C)C)[C@]1(OC(C)=O)CO[C@@H]1C[C@@H]2O [Paclitaxel nanoparticles lot used in formulas listed in Tabl] [listing 2 of 2 here]
- Particle size, Mean [1]: 0.83 μm
- Specific surface area (SSA) [2]: 26.72 m^2/g
- Bulk density (not-tapped) [3]: 0.09 g/mL

Structure (SMILES): CC(=O)O[C@H]1C(=O)[C@@]2(C)[C@H]([C@H](OC(=O)c3ccccc3)[C@]3(O)C[C@H](OC(=O)[C@H](O)[C@@H](NC(=O)c4ccccc4)c4ccccc4)C(C)=C1C3(C)C)[C@]1(OC(C)=O)CO[C@@H]1C[C@@H]2O [Paclitaxel nanoparticles, paclitaxel]
- Crystal size (light microscopy) [4, 7]: > 5 μm
- Needle shaped crystals observed? (visual observation by light microscopy) [4, 7]: Yes
- Crystal size (light microscopy) [4, 8]: > 5 μm
- Needle shaped crystals observed? (visual observation by light microscopy) [4, 8]: Yes
- Crystal size (light microscopy) [4, 9]: < 5 μm
- Needle shaped crystals observed? (visual observation by light microscopy) [4, 9]: No
- Crystal size (light microscopy) [4, 10]: < 5 μm
- Needle shaped crystals observed? (visual observation by light microscopy) [4, 10]: No
- Crystal size (light microscopy) [4, 11]: < 5 μm
- Needle shaped crystals observed? (visual observation by light microscopy) [4, 11]: No
- Crystal size (light microscopy) [4, 12]: < 5 μm
- Needle shaped crystals observed? (visual observation by light microscopy) [4, 12]: No
- Crystal size (light microscopy) [4, 13]: < 5 μm
- Needle shaped crystals observed? (visual observation by light microscopy) [4, 13]: No
- Crystal size (light microscopy) [4, 14]: > 5 μm
- Needle shaped crystals observed? (visual observation by light microscopy) [4, 14]: Yes
- Crystal size (light microscopy) [4, 15]: > 5 μm
- Needle shaped crystals observed? (visual observation by light microscopy) [4, 15]: Yes
- Crystal size (light microscopy) [4, 16]: > 10 μm
- Needle shaped crystals observed? (visual observation by light microscopy) [4, 16]: Yes
- Crystal size (light microscopy) [4, 17]: < 5 μm
- Needle shaped crystals observed? (visual observation by light microscopy) [4, 17]: No
- Crystal size (light microscopy) [4, 18]: > 5 μm
- Needle shaped crystals observed? (visual observation by light microscopy) [4, 18]: Yes
- Crystal size (light microscopy) [4, 19]: > 5 μm
- Needle shaped crystals observed? (visual observation by light microscopy) [4, 19]: Yes
- Crystal size (light microscopy) [4, 20]: < 5 μm
- Needle shaped crystals observed? (visual observation by light microscopy) [4, 20]: No
- Crystal size (light microscopy) [4, 21]: > 5 μm
- Needle shaped crystals observed? (visual observation by light microscopy) [4, 21]: Yes
- Crystal size (light microscopy) [4, 22]: > 5 μm
- Needle shaped crystals observed? (visual observation by light microscopy) [4, 22]: Yes
- Crystal size (light microscopy) [4, 23]: < 5 μm
- Needle shaped crystals observed? (visual observation by light microscopy) [4, 23]: No
- Crystal size (light microscopy) [4, 24]: < 5 μm
- Needle shaped crystals observed? (visual observation by light microscopy) [4, 24]: Yes
- Crystal size (light microscopy) [4, 25]: > 5 μm
- Needle shaped crystals observed? (visual observation by light microscopy) [4, 25]: Yes
- Crystal size (light microscopy) [4, 26]: < 5 μm
- Needle shaped crystals observed? (visual observation by light microscopy) [4, 26]: Yes
- Crystal size (light microscopy) [4, 27]: < 5 μm
- Needle shaped crystals observed? (visual observation by light microscopy) [4, 27]: Yes
- Crystal size (light microscopy) [4, 28]: > 5 μm
- Needle shaped crystals observed? (visual observation by light microscopy) [4, 28]: Yes
- Crystal size (light microscopy) [4, 29]: > 5 μm
- Needle shaped crystals observed? (visual observation by light microscopy) [4, 29]: Yes
- Crystal size (light microscopy) [4, 30]: < 5 μm
- Needle shaped crystals observed? (visual observation by light microscopy) [4, 30]: No
- Crystal size (light microscopy) [4, 31]: > 10 μm
- Needle shaped crystals observed? (visual observation by light microscopy) [4, 31]: Yes
- Crystal size (light microscopy) [4, 32]: > 5 μm
- Needle shaped crystals observed? (visual observation by light microscopy) [4, 32]: Yes
- Crystal size (light microscopy) [4, 33]: > 5 μm
- Needle shaped crystals observed? (visual observation by light microscopy) [4, 33]: Yes
- Crystal size (light microscopy) [4, 34]: > 5 μm
- Needle shaped crystals observed? (visual observation by light microscopy) [4, 34]: Yes
- Crystal size (light microscopy) [4, 35]: < 5 μm
- Needle shaped crystals observed? (visual observation by light microscopy) [4, 35]: Yes
- Crystal size (light microscopy) [4, 36]: > 5 μm
- Needle shaped crystals observed? (visual observation by light microscopy) [4, 36]: Yes
- Crystal growth ([4]; in any of the hydrophobic carriers): did not grow
- Crystal growth ([4]; in aqueous solutions of benzalkonium chloride, CARBOPOL ULTREZ 10, or poloxamer 407): did not grow

Structure (SMILES): CC(=O)O[C@H]1C(=O)[C@@]2(C)[C@H]([C@H](OC(=O)c3ccccc3)[C@]3(O)C[C@H](OC(=O)[C@H](O)[C@@H](NC(=O)c4ccccc4)c4ccccc4)C(C)=C1C3(C)C)[C@]1(OC(C)=O)CO[C@@H]1C[C@@H]2O [Paclitaxel, paclitaxel]
- Paclitaxel Solubility at RT ([5]; in Benzyl Alcohol, NF): 17.02% w/w
- Paclitaxel Solubility at RT ([5]; in Diethylene Glycol Monoethyl Ether, NF (TRANSCUTOL P)): 33.10% w/w
- Paclitaxel Solubility at RT ([5]; in Diisopropyl Adipate (CERAPHYL 230)): 3.51% w/w
- Paclitaxel Solubility at RT ([5]; in Dimethyl Isosorbide): 38.22% w/w
- Paclitaxel Solubility at RT ([5]; in Hexylene Glycol): 4.07% w/w
- Paclitaxel Solubility at RT ([5]; in Isopropyl Myristate, NF): 0.048% w/w
- Paclitaxel Solubility at RT ([5]; in Medium Chain Triglycerides, NF): 0.32% w/w
- Paclitaxel Solubility at RT ([5]; in Mineral Oil, USP (heavy)): 0.3 ppm
- Paclitaxel Solubility at RT ([5]; in Polyethylene Glycol 400, NF): 22.30% w/w
- Paclitaxel Solubility at RT ([5]; in Propylene Carbonate): 4.74% w/w
- Paclitaxel Solubility at RT ([5]; in Propylene Glycol, USP): 0.88% w/w
- Paclitaxel Solubility at RT ([5]; in Purified Water, USP): <0.05 ppm
- Paclitaxel Solubility at RT ([5]; in Purified Water, USP, listed as paclitaxel): less than 0.05 ppm
- Paclitaxel Solubility at RT ([5]; in Super Refined Oleic Acid, NF): 0.041% w/w
- Paclitaxel Solubility at RT ([5]; in Super Refined Oleyl Alcohol, NF): 0.38% w/w
- Effect in skin inflammation models (skin inflammation models): reduced inflammation, swelling, and erythema

Structure (SMILES): CC(=O)O[C@@]12CO[C@@H]1C[C@H](O)[C@@]1(C)C(=O)[C@H](O)C3=C(C)[C@@H](OC(=O)[C@H](O)[C@@H](NC(=O)OC(C)(C)C)c4ccccc4)C[C@@](O)([C@@H](OC(=O)c4ccccc4)[C@H]21)C3(C)C [docetaxel nanoparticles produced by milling] [reference compound]
- Dissolution rate, % dissolved in 30 minutes ([6]; listed as docetaxel nanoparticles made by milling): 9%

Structure (SMILES): CC(=O)O[C@@]12CO[C@@H]1C[C@H](O)[C@@]1(C)C(=O)[C@H](O)C3=C(C)[C@@H](OC(=O)[C@H](O)[C@@H](NC(=O)OC(C)(C)C)c4ccccc4)C[C@@](O)([C@@H](OC(=O)c4ccccc4)[C@H]21)C3(C)C [docetaxel nanoparticles, docetaxel]
- Dissolution rate, % dissolved in 30 minutes [6]: 27%
